Reference: patent publication US4943595A, “Perfluorochemicals and process for preparing the same” (The Green Cross Corporation, priority 1984, dated 1990)
Like-named read-outs stand apart in the source and are kept apart here.

Legend:
[1] = Stability of emulsion stored at 4° C. (change of particle size); type: physicochemical; parameters: key: Excellent: Particle size is hardly increased one month after the storage.; Good: The increase of the particle size is at most 50% or liquid-particle separation is observed one month after the storage; details: one month at 4° C., emulsion sterilized 100° C. 30 min
Procedure: (§1) According to the above preparation method of the emulsion, the emulsions of various perfluoroalkyl ether derivatives are prepared. Nine parts by volume of the resulting emulsion were diluted with 1 part by volume of an electrolyte solution of the following composition:
(§2) The emulsions were sterized by heating at 100° C. for 30 minutes in a nitrogen atmosphere. The emulsions were used for the following test.
The emulsions were stored at 4° C. and the stability was measured in terms of the change of the particle size by the following measures.
Good: The increase of the particle size is at most 50% or liquid-particle separation is observed one month after the storage.

[2] = Vapor pressure of the perfluorochemical; details: 38° C.
[3] = Elimination property: half reduction term in the body of the rat; type: in vivo
Procedure: as §1, §2
This property was measured by the half reduction term in the body of the rat, and evaluated as follows: […]

[4] = system: wister male rats; assay: Acute toxicity after intravenous injection of emulsion, observed by dissection (pulmonary emphysema); type: in vivo; details: i.v., rat, one week after injection
Procedure: as §1, §2
The emulsions which had been made physiologically isotonic were injected intravenously to the wister male rats of 100 to 200 g. One week after the injection acute toxicity was observed by dissection, and evaluation was effected according to the following measures.
Toxic: Occurrence of pulmonary emphysema. LD50 : 2-4 g/kg
Non toxicic: No occurence of pulmonary emphysema. LD50 : above 20 g/kg

[5] = 37° C.; cited from earlier work
[6] = comparison between perfluorochemicals; cited from earlier work

SMILES: FC(F)(F)C(F)(F)OC(C(F)(F)F)(C(F)(C(F)(F)F)C(F)(F)F)C(F)(C(F)(F)F)C(F)(F)F
- Stability of Emulsion [1]: excellent

SMILES: FC(F)(F)C(F)(F)C(F)(F)OC(F)(F)C(F)(F)C(F)(F)C(F)(F)C(F)(F)C(F)(F)C(F)(F)F [Example 18, Perfluoro-1-n-propoxyheptane]
- Stability of Emulsion [1]: good
- Vapor pressure [2]: 15-16 mmHg
- Elimination property [3]: poort

SMILES: FC(F)(F)C(F)(F)C(F)(F)C(F)(F)OC(C(F)(F)F)(C(F)(F)F)C(F)(F)C(F)(F)C(F)(F)F [drawing 61]
- Stability of Emulsion [1]: Excellent
- Toxicity [4]: Non tox- ic

SMILES: FC(F)(F)C(F)(F)C(F)(F)OC(F)(C(F)(C(F)(F)F)C(F)(F)F)C(F)(C(F)(F)F)C(F)(F)F [drawing 62]
- Stability of Emulsion [1]: excellent
- Elimination property [3]: fair

SMILES: FC(F)(F)OC(F)(C(F)(F)F)C(F)(F)C(C(F)(F)F)(C(F)(F)C(F)(F)F)C(F)(F)C(F)(F)F (stereo not drawn) [drawing 63]
- Stability of Emulsion [1]: good

SMILES: FC1(F)C(F)(F)C(F)(F)[C@]2(F)C(F)(F)C(F)(F)C(F)(F)C(F)(F)[C@]2(F)C1(F)F [perfluoro-cis-decalin]
- Vapor pressure [5]: 10.1 mmHg
- elimination rate (in words) [6]: slightly higher elimination rate than the trans isomer

SMILES: FC1(F)C(F)(F)C(F)(F)[C@]2(F)C(F)(F)C(F)(F)C(F)(F)C(F)(F)[C@@]2(F)C1(F)F [trans isomer]
- Vapor pressure [5]: 11.6 mmHg
